Measurements taken from patent publication EP0758883B1, “FUSOGENIC LIPOSOMES AND METHODS OF MAKING AND USING SAME” (THE LIPOSOME COMPANY, INC., priority 1994, dated 1995).

Experiments:
[1] = Lipid-mixing fusion assay (RET fluorescent probe dilution), EPC/Chol liposomes; settings: plateau after dissipation of the pH gradient with 100 mM ammonium acetate, complete mixing would give 80%
Protocol: Fusion was monitored by the decrease in resonance energy transfer (RET) resulting from fluorescent probe dilution, as described by Struck et al. (1981). […] The external buffer was 20 mM HEPES (150 mM NaCl, pH 7.5). […] Labeled and unlabeled liposomes were mixed in a 1:3 ratio, and diluted to 0.2 mM total lipid. External buffer was exchanged for 300 mM sucrose, 1 mM citrate, pH 4.0, on Sephadex G-25 columns before diluting preparations to 10 mM lipid. For fusion assays, 20 µl of fluorescently labeled liposomes, and 60 µl unlabeled liposomes, were added to 3.92 ml of 20 mM HEPES, 150 mM NaCl, pH 7.5. After 5 min. of incubation at room temperature, a 3 ml aliquot was added to a cuvette, and the fluorescence was monitored over 5 minutes. Excitation and emission wavelengths were 465 and 535 nm, respectively, and an emission 530 nm cutoff filter was used. […] The percent change in fluorescence (% F/ Fmax) was determined by assigning zero fluorescence (F0) to a trace with no ammonium acetate added and Fmax to a trace measured after adding 100 µl of 25 mM Triton X-100, so that: % ( F/ Fmax ) = 100 x ((F-F0 )/(Fmax -F0 )) [formula] […]
(§1) Membrane fusion was monitored by a loss in RET between the fluorescently labeled lipids NBD-PE and Rh-PE. When liposomes containing both of these labels fuse with unlabeled liposomes, the resulting dilution of the fluorescent probes gives Increased fluorescence for NBD-PE.

[2] = Lipid-mixing fusion assay (RET fluorescent probe dilution), EPC/DOPE/Chol liposomes; settings: for fusogenic capacity (fusion rate): 5 mole % of each aminolipid in EPC/DOPE/Chol (35:20:45) liposomes, Figure 9, in words
Protocol: Fusion was monitored by the decrease in resonance energy transfer (RET) resulting from fluorescent probe dilution, as described by Struck et al. (1981). […] The external buffer was 20 mM HEPES (150 mM NaCl, pH 7.5). […] Labeled and unlabeled liposomes were mixed in a 1:3 ratio, and diluted to 0.2 mM total lipid. External buffer was exchanged for 300 mM sucrose, 1 mM citrate, pH 4.0, on Sephadex G-25 columns before diluting preparations to 10 mM lipid. For fusion assays, 20 µl of fluorescently labeled liposomes, and 60 µl unlabeled liposomes, were added to 3.92 ml of 20 mM HEPES, 150 mM NaCl, pH 7.5. After 5 min. of incubation at room temperature, a 3 ml aliquot was added to a cuvette, and the fluorescence was monitored over 5 minutes. Excitation and emission wavelengths were 465 and 535 nm, respectively, and an emission 530 nm cutoff filter was used. To dissipate the gradient and induce fusion, ammonium acetate was added to a final concentration of 100 mM at 30 seconds. The percent change in fluorescence (% F/ Fmax) was determined by assigning zero fluorescence (F0) to a trace with no ammonium acetate added and Fmax to a trace measured after adding 100 µl of 25 mM Triton X-100, so that: % ( F/ Fmax ) = 100 x ((F-F0 )/(Fmax -F0 )) [formula]
To study the effect of aminolipid structure on the fusion of EPC/Chol/DOPE liposomes (35:20:45) liposomes were prepared with 5 mole % of the indicated aminolipid (AL-1-AL-6), an internal pH 4.0, 300 mM sodium citrate buffer, and an external 20 mM HEPES buffer (150 mM NaCl, pH 7.5). Fusion assays were carried out as described above.
as §1

[3] = Lipid asymmetry (transbilayer distribution) by TNS fluorescence; type: physicochemical; settings: 10 mole % in EPC/Chol (55:45), internal pH 4, external pH 7.5; after four minutes
[4] = TNS fluorescence titration for ionizable lipid pKa in liposomal bilayers; settings: aminolipid incorporated into liposomes; for % Charged at pH 7.5: from TNS fluorescence titrations

aminolipid moved to the inner monolayer [3] | fraction of neutral species at pH 7.5 [4] [%] | % Charged at pH 7.5 [4] [%] | Structure (SMILES) | ΔF/ΔFmax ([1]; 10 mole % AL-1 in EPC/Chol (55:45)) [%] | ΔF/ΔFmax ([1]; 20 mole % AL-1 in EPC/Chol (55:45)) [%] | ΔF/ΔFmax ([2]; 10 mole % AL-1 in EPC/DOPE/Chol (30:25:45), over 5 minutes after dissipation of the pH gradient) [%] | ΔF/ΔFmax ([2]; 10 mole % AL-1 in EPC/DOPE/Chol (35:20:45), after 5 minutes) | ΔF/ΔFmax ([2]; about 5 mole % AL-1 in EPC/DOPE/Chol (35:20:45), over the first 5 minutes after dissipation of the pH gradient) | fusogenic capacity (fusion rate) [2]
virtually all | 11 | 11 | CCCCCCCC/C=C\CCCCCCCC(=O)OCC(CN(C)C)OC(=O)CCCCCCC/C=C\CCCCCCCC (racemic) [AL-1, 1-N,N-dimethylamino dioleoyl propane] | ~3 | ~3 | ~10 | over 5% | greater than 10% | 
 |  | 54 | CCCCCCCC/C=C\CCCCCCCC(=O)OCC(O)CN(C)C (racemic) [AL-2, ±-1-oleoyl-2-hydroxy-3-N,N-dimethylamino propane] |  |  |  |  |  | little Increase in liposome fusion
 | 16 | 16 | CCCCCCCC/C=C\CCCCCCCC(=O)OCC(CN(C)C)OC(C)=O (racemic) [AL-3] |  |  |  |  |  | substantially greater fusion rate
 |  | 14 | CCCCCCCC/C=C\CCCCCCCC(=O)OCC(CN(C)C)OC(=O)CCCCCCCCC (racemic) [AL-5] |  |  |  |  |  | further increases in the fusion rate
 |  | 17 | CCCCCCCCCC(=O)OCC(CN(C)C)OC(=O)CCCCCCCCC (racemic) [AL-6, ±-1,2-didecanoyl-1-N,N-dimethylamino propane] |  |  |  |  |  | only limited mixing

Structure (SMILES) | aminolipid moved to the inner monolayer [3] | fraction of neutral species at pH 7.5 [4] [%] | % Charged at pH 7.5 [4] [%] | ΔF/ΔFmax ([1]; 10 mole % AL-1 in EPC/Chol (55:45)) [%] | ΔF/ΔFmax ([1]; 20 mole % AL-1 in EPC/Chol (55:45)) [%] | ΔF/ΔFmax ([2]; 10 mole % AL-1 in EPC/DOPE/Chol (30:25:45), over 5 minutes after dissipation of the pH gradient) [%] | ΔF/ΔFmax ([2]; 10 mole % AL-1 in EPC/DOPE/Chol (35:20:45), after 5 minutes) | ΔF/ΔFmax ([2]; about 5 mole % AL-1 in EPC/DOPE/Chol (35:20:45), over the first 5 minutes after dissipation of the pH gradient) | fusogenic capacity (fusion rate) [2]
CCCCCCCC/C=C\CCCCCCCC(=O)OCC(CN(C)C)OC(=O)CCC (racemic) [AL-4] |  |  | 13 |  |  |  |  |  | further increases in the fusion rate
